Measurements from patent publication US20120129898A1, “PHARMACEUTICAL COMPOSITIONS FOR POORLY SOLUBLE DRUGS” (priority 2007, published 2012).

Legend:
[1] = Aqueous solubility of HEP; assay type: physicochemical
[2] = Exposure after dosing crystalline HEP in animal species; assay type: in vivo; conditions: crystalline form dosed in animal species

SMILES: CCC(=O)c1csc(NC(=O)[C@H]([C@@H](C)c2ccccc2)N2C(=O)N[C@H](c3ccc(OCCO)cc3)C2=O)n1 [HEP, (2S,3S)-2-{(R)-4-[4-(2-hydroxy-ethoxy)-phenyl]-2,5-dioxo-imidazolidin-1-yl}-3-phenyl-N-(4-propionyl-thiazol-2-yl)-butyramide]
- Aqueous solubility [1]: poor aqueous solubility
- Exposure of crystalline form (even nanocrystalline) [2]: very low exposure
